Assay results taken from patent US5049685A, “Nuclear substituted salicylic acids and their salts” (Sanko Kaihatsu Kagaku Kenkyusho, priority 1988, dated 1991).

Experiments:
[1] = Solubility in toluene (four-stage evaluation); assay type: physicochemical
[2] = Solubility in water (four-stage evaluation); assay type: physicochemical

SMILES	Solubility in Toluene [1]	solubility [2] [mg/mL]	Solubility in Water [2]
Cc1c(C(C)(C)C)cc(C(C)(C)C)c(O)c1C(=O)O [1 Free Acid]	.largecircle. (solubility =not less than 20% to less than 50%)		
C1COCCN1 [1 Morpholine]	.largecircle. (solubility =not less than 20% to less than 50%)	> 500	
Cc1c(C(C)(C)C)cc(C(C)(C)C)c(O)c1C(=O)O [1 Sodium]		> 500	
Cc1c(C(C)(C)c2ccccc2)cc(C(C)(C)C)c(O)c1C(=O)O [2-2 Free Acid]	.circleincircle. (solubility =not less than 50%)		
Cc1c(C(C)(C)c2ccccc2)cc(C(C)(C)C)c(O)c1C(=O)O [2-2 Morpholine]	.largecircle. (solubility =not less than 20% to less than 50%)		.circleincircle. (solubility =not less than 50%)
Cc1c(C(C)(C)c2ccccc2)cc(C(C)(C)C)c(O)c1C(=O)O [2-2 Sodium]		> 500	
CCC(C)(C)c1cc(C(C)(C)CC)c(O)c(C(=O)O)c1C [3-2 Free Acid]	.largecircle. (solubility =not less than 20% to less than 50%)		
CCC(C)(C)c1cc(C(C)(C)CC)c(O)c(C(=O)O)c1C [3-2 Sodium]		> 500	
Cc1c(C(C)(C)C)cc(C(C)(C)CC(C)(C)C)c(O)c1C(=O)O [4-3 Free Acid]	.circleincircle. (solubility =not less than 50%)		
Cc1c(C(C)(C)C)cc(C(C)(C)CC(C)(C)C)c(O)c1C(=O)O [4-3 Morpholine]	.largecircle. (solubility =not less than 20% to less than 50%)		.circleincircle. (solubility =not less than 50%)
Cc1c(C(C)(C)C)cc(C(C)(C)CC(C)(C)C)c(O)c1C(=O)O [4-3 Sodium]		> 500	
Cc1c(C(C)(C)C)cc(C(C)(C)c2ccccc2)c(O)c1C(=O)O [5-3 Free Acid]	.circleincircle. (solubility =not less than 50%)		
Cc1c(C(C)(C)C)cc(C(C)(C)c2ccccc2)c(O)c1C(=O)O [5-3 Morpholine]	.largecircle. (solubility =not less than 20% to less than 50%)		.circleincircle. (solubility =not less than 50%)
Cc1c(C(C)(C)C)cc(C(C)(C)c2ccccc2)c(O)c1C(=O)O [5-3 Sodium]		> 500	
Cc1cc(C(C)(C)c2ccccc2)c(C)c(C(=O)O)c1O [11-2 Free Acid]	.largecircle. (solubility =not less than 20% to less than 50%)		
Cc1cc(C(C)(C)c2ccccc2)c(C)c(C(=O)O)c1O [11-2 Sodium]		> 500	
Cc1c(C(C)(C)c2ccccc2)cc(C(C)C)c(O)c1C(=O)O [12-2 Free Acid]	.circleincircle. (solubility =not less than 50%)		
Cc1c(C(C)(C)c2ccccc2)cc(C(C)C)c(O)c1C(=O)O [12-2 Sodium]		> 500	
Cc1cc(C(C)(C)c2ccccc2)cc(C(=O)O)c1O [(2) Free Acid, 3-methyl-5-(α,α-dimethyllbenzyl)salicylic acid, reference compound]	Δ (solubility =not less than 5% to less than 20%)		
Cc1cc(C(C)(C)c2ccccc2)cc(C(=O)O)c1O [(2) Sodium, 3-methyl-5-(α, α-dimethylbenzyl)salicylic acid, reference compound]		200 to 500	
